Assay results from ChEMBL document CHEMBL1139278 (2009).

Columns and labels:
Format in all cases: functional
Staphylococcus aureus [1] = assay: Antimicrobial activity against methicillin-susceptible Staphylococcus aureus Smith by NCCLS method
Streptococcus pneumoniae [2] = assay: Antimicrobial activity against penicillin-susceptible Streptococcus pneumoniae ATCC 49619 by NCCLS method
Moraxella catarrhalis = assay: Antimicrobial activity against Moraxella catarrhalis K1209 by NCCLS method
Streptococcus pneumoniae [3] = assay: Antimicrobial activity against penicillin-resistant Streptococcus pneumoniae KT2524 by NCCLS method
Streptococcus pyogenes = assay: Antimicrobial activity against Streptococcus pyogenes ATCC 112344 by NCCLS method
Staphylococcus aureus [4] = assay: Antimicrobial activity against methicillin-susceptible Staphylococcus aureus infected iv dosed mouse assessed as survival rate after 1 hr of infection
Haemophilus influenzae = assay: Antimicrobial activity against Haemophilus influenzae TH13 by NCCLS method
Staphylococcus aureus [5] = assay: Antimicrobial activity against methicillin-resistant Staphylococcus aureus KMP9
Enterococcus faecium = assay: Antimicrobial activity against vancomycin-resistant Enterococcus faecium KU1778 by NCCLS method

| SMILES | MIC (Staphylococcus aureus [1]) [µg/mL] | MIC (Streptococcus pneumoniae [2]) [µg/mL] | MIC (Moraxella catarrhalis) [µg/mL] | MIC (Streptococcus pneumoniae [3]) [µg/mL] | MIC (Streptococcus pyogenes) [µg/mL] | ED50 (Staphylococcus aureus [4]) [mg/kg] | MIC (Haemophilus influenzae) [µg/mL] | MIC (Staphylococcus aureus [5]) [µg/mL] | MIC (Enterococcus faecium) [µg/mL] |
| --- | --- | --- | --- | --- | --- | --- | --- | --- | --- |
| C=C[C@]1(C)C[C@@H](OC(=O)CN2CCN(C(=O)CCn3cnc4c(N5CCC(N)C5)ncnc43)CC2)[C@]2(C)[C@H](C)CC[C@]3(CCC(=O)[C@@H]32)[C@@H](C)[C@@H]1O.Cl.Cl (some centres undefined) | 0.25 | 0.063 | 0.25 | 0.063 | 0.032 | 0.8 | 4 | 1 | 0.5 |
| C=C[C@]1(C)C[C@@H](OC(=O)CN2CCN(C(=O)CCn3cnc4c(N5CCC(N)C5)ncnc43)C(CC)C2)[C@]2(C)[C@H](C)CC[C@]3(CCC(=O)[C@@H]32)[C@@H](C)[C@@H]1O.Cl.Cl (some centres undefined) | 0.25 | 0.063 | 0.125 | 0.063 | 0.032 | 2.95 | 4 | 0.25 | 0.125 |
| C=C[C@]1(C)C[C@@H](OC(=O)CN2CCN(C(=O)CCn3cnc4c(N5CC[C@@H](CNC)C5)ncnc43)CC2)[C@]2(C)[C@H](C)CC[C@]3(CCC(=O)[C@@H]32)[C@@H](C)[C@@H]1O.Cl.Cl | 0.25 | 0.125 | 0.125 | 0.125 | 0.063 | 1.18 | 2 | 2 | 0.5 |
| C=C[C@]1(C)C[C@@H](OC(=O)CN2CCN(C(=O)CCn3cnc4c(N5CCC(N)CC5)ncnc43)CC2)[C@]2(C)[C@H](C)CC[C@]3(CCC(=O)[C@@H]32)[C@@H](C)[C@@H]1O.Cl.Cl | 0.25 | 0.125 | 0.125 | 0.125 | 0.032 | 0.97 | 2 | 1 | 0.25 |
| C=C[C@]1(C)C[C@@H](OC(=O)CN2CCN(C(=O)CCn3cnc4c(N5CCC(CN)CC5)ncnc43)CC2)[C@]2(C)[C@H](C)CC[C@]3(CCC(=O)[C@@H]32)[C@@H](C)[C@@H]1O.Cl.Cl | 0.25 | 0.125 | 0.125 | 0.125 | 0.032 | 1.51 | 2 | 1 | 0.25 |
| C=C[C@]1(C)C[C@@H](OC(=O)CN2CCN(C(=O)CCn3cnc4c(N5CCC(N)C5)ncnc43)[C@@H](C)C2)[C@]2(C)[C@H](C)CC[C@]3(CCC(=O)[C@@H]32)[C@@H](C)[C@@H]1O.Cl.Cl (some centres undefined) | 0.125 | 0.032 | 0.125 | 0.063 | 0.032 | 1.47 | 2 | 0.25 | 0.125 |
| C=C[C@]1(C)C[C@@H](OC(=O)CN2CCN(C(=O)CCn3cnc4c(N5CC[C@H](CNC)C5)ncnc43)[C@@H](C)C2)[C@]2(C)[C@H](C)CC[C@]3(CCC(=O)[C@@H]32)[C@@H](C)[C@@H]1O.Cl.Cl | 0.25 | 0.063 | 0.125 | 0.063 | 0.032 | 1.1 | 2 | 0.5 | 0.25 |
| C=C[C@]1(C)C[C@@H](OC(=O)CN2CCN(C(=O)CCn3cnc4c(N5CCC(N)CC5)ncnc43)[C@@H](C)C2)[C@]2(C)[C@H](C)CC[C@]3(CCC(=O)[C@@H]32)[C@@H](C)[C@@H]1O.Cl.Cl | 0.25 | 0.063 | 0.125 | 0.063 | 0.032 | 1.66 | 4 | 0.5 | 0.125 |
| C=C[C@]1(C)C[C@@H](OC(=O)CN2CCN(C(=O)CCn3cnc4c(N5CCC(N(C)C)C5)ncnc43)CC2)[C@]2(C)[C@H](C)CC[C@]3(CCC(=O)[C@@H]32)[C@@H](C)[C@@H]1O.Cl.Cl (some centres undefined) | 0.25 | 0.125 | 0.125 | 0.063 | 0.063 | 2.94 | 4 | 0.25 | 0.125 |
| C=C[C@]1(C)C[C@@H](OC(=O)CN2CCN(C(=O)CCn3cnc4c(N5CCNCC5)ncnc43)CC2)[C@]2(C)[C@H](C)CC[C@]3(CCC(=O)[C@@H]32)[C@@H](C)[C@@H]1O.Cl.Cl | 0.125 | 0.063 | 0.063 | 0.063 | 0.032 | 1.65 | 2 | 0.25 | 0.063 |
| C=C[C@]1(C)C[C@@H](OC(=O)CN2CCN(C(=O)CCn3cnc4c(N5CCC(N)C5)ncnc43)[C@H](C)C2)[C@]2(C)[C@H](C)CC[C@]3(CCC(=O)[C@@H]32)[C@@H](C)[C@@H]1O.Cl.Cl (some centres undefined) | 0.25 | 0.125 | 0.25 | 0.125 | 0.063 | 2.21 | 8 | 0.5 | 0.25 |
